Reference: patent publication US20250127734A1, “ALZ-801 FOR USE IN TREATING A COVID-19 ASSOCIATED NEUROLOGICAL SYMPTOM” (Alzheon, Inc., priority 2022, published 2025)
Values joined by “and” are separate entries in the source; they are usually repeats but may differ in a detail not shown here. Identical values can stand only once.

B1: lecanemab: anti-amyloid antibody (antibody, chains of the INN, looked up, V domains shown)
VH: EVQLVESGGGLVQPGGSLRLSCSASGFTFSSFGMHWVRQAPGKGLEWVAYISSGSSTIYYGDTVKGRFTISRDNAKNSLFLQMSSLRAEDTAVYYCAREGGYYYGRSYYTMDYWGQGTTVTVSS
VL: DVVMTQSPLSLPVTPGAPASISCRSSQSIVHSNGNTYLEWYLQKPGQSPKLLIYKVSNRFSGVPDRFSGSGSGTDFTLRISRVEAEDVGIYYCFQGSHVPPTFGPGTKLEIK

Tests used:
plasma Abeta42 = assay: Phase 2 trial in early AD APOE4 carriers: plasma Abeta42; assay type: in vivo, human; conditions: 52 weeks; 265 mg BID oral; p=0.005
Protocol: (§1) Evaluation of disease modifying effects from phase 2 trial of ALZ-801 (valiltramiprosate) in subjects with early Alzheimer's disease were conducted. The study enrolled 84 patients, with early AD, who carry the APOE4/4 or APOE3/4 genotype and have an MMSE score ranging from 22 to 30 (CDR-G 0.5 or 1). Each patient received 265 mg ALZ-801 twice daily. The average MMSE score of the subjects was 26 (mean age 69 years, 52% female). Subjects were either amyloid PET positive or A+/T+ on CSF assays. CSF criteria were: Ratio of Aβ42/40×10≤0.61, and p-tau181≥61 pg/ml. CSF was evaluated at 52 weeks, and plasma biomarkers at every visit.
(§2) All fluid biomarker analyses were performed at the Neurochemistry Laboratory of Dr. Blennow (Molndal, Sweden), and were blinded to subject's demographics or genotype. CSF biomarker assays were analyzed using Lumipulse (Fujirebio) and plasma assays utilized Simoa assays. Cognitive tests include the Rey Auditory Verbal Learning Test (RAVLT: immediate, delayed and recognition memory) and Digit Symbol Substitution Tests (DSST), and a composite Z-score is calculated (3-item RAVLT+DSST). Change from baseline (CBL) analyses were performed on the mITT population and included all observed data, using paired t-tests and 2-sided p-values. The primary biomarker outcome was p-tau181. […]

plasma p-tau181 = assay: Phase 2 trial in early AD APOE4 carriers: plasma p-tau181 (Simoa); assay type: in vivo, human; conditions: 265 mg BID oral, APOE4/4 or APOE3/4, change from baseline
Protocol: as §1
(§3) All fluid biomarker analyses were performed at the Neurochemistry Laboratory of Dr. Blennow (Molndal, Sweden), and were blinded to subject's demographics or genotype. CSF biomarker assays were analyzed using Lumipulse (Fujirebio) and plasma assays utilized Simoa assays. Cognitive tests include the Rey Auditory Verbal Learning Test (RAVLT: immediate, delayed and recognition memory) and Digit Symbol Substitution Tests (DSST), and a composite Z-score is calculated (3-item RAVLT+DSST). Change from baseline (CBL) analyses were performed on the mITT population and included all observed data, using paired t-tests and 2-sided p-values. The primary biomarker outcome was p-tau181.
(§4) Of the 84 APOE4 carrier that were enrolled and received ALZ-801, 80 and 75 subjects completed 26 and 52 weeks respectively. […] This is much greater than the annualized ˜12% reduction in plasma p-tauisi observed in the recent human clinical trials of the anti-amyloid antibody lecanemab (van Dyck, C H et al., N Engl J Med 2023; 388: 9-21, DOI: 10.1056/NEJMoa2212948).

[1] = system: plasma p-tau181/Abeta42 ratio; assay: Phase 2 trial in early AD APOE4 carriers: plasma p-tau181/Abeta42 ratio; assay type: in vivo, human; conditions: 265 mg BID oral
Protocol: as §1, §3, §4

plasma Abeta40 = assay: Phase 2 trial in early AD APOE4 carriers: plasma Abeta40; assay type: in vivo, human; conditions: 52 weeks; 265 mg BID oral; p=0.002
Protocol: as §1, §2

[2] = Phase 2 trial in early AD APOE4 carriers: brain volumes (hippocampal, ventricular; MRI) vs matched ADNI cohort; assay type: in vivo, human
Protocol: as §1
Unlike anti-amyloid antibodies, such as Lecanemab, ALZ-801 treatment over 52 weeks also appeared to show an ˜15% reduction in ventricular volume expansion as measured by MRI (p=0.08).

[3] = cited from earlier work

Molecule | reduction in plasma Abeta42 (plasma Abeta42) [%] | reduction in plasma p-tau181 (plasma p-tau181; 13 weeks, p=0.014) [%] | reduction in plasma p-tau181 (plasma p-tau181; 26 weeks, p=0.014) [%] | reduction in plasma p-tau181 (plasma p-tau181; 52 weeks, p=0.016) [%] | reduction in plasma p-tau181/Abeta42 ratio ([1]; 13 weeks, p=0.011) [%] | reduction in plasma p-tau181/Abeta42 ratio ([1]; 26 weeks, p=0.011) [%] | reduction in plasma p-tau181/Abeta42 ratio ([1]; 52 weeks, p=0.032) | reduction in plasma Abeta40 (plasma Abeta40) [%] | annualized reduction in atrophy of hippocampal volume ([2]; compared to a well-matched ADNI cohort, p=0.05) [%] | reduction in ventricular volume expansion ([2]; over 52 weeks, measured by MRI, p=0.08) [%] | annualized reduction in hippocampal volume atrophy, result in words ([3]; Van Dyck, 2022) | annualized reduction in plasma p-tau181 ([3]; recent human clinical trials of lecanemab, van Dyck et al. N Engl J Med 2023) [%]
CC(C)[C@H](N)C(=O)NCCCS(=O)(=O)O [ALZ-801, valyl-3-amino-1-propanesulfonic acid] | 5 | 18 | 29 | 41 | 21 | 30 | 37% and 31% | 5 | ~20 | ~15 | – | –
B1 | – | – | – | – | – | – | – | – | – | – | did not demonstrate any significant annualized reduction | ~12
